The values below are quoted from earlier work in the CATMoS acute toxicity set (Mansouri et al. 2021).

A short description of this data set: rat acute oral toxicity. The conditions noted are these: in vivo.
On to `c1ccc([Si]23OCCN(CCO2)CCO3)cc1`, for which the LD50 is 1.48 mg/kg.

As for `O=[N+]([O-])c1ccccc1O`, the LD50 is 334 mg/kg.

In the case of `OCC1CCC(CO)CC1` (stereo not drawn), the median lethal dose (LD50) is 3200 mg/kg.

Take `CC(C)(C)S`: the 50% lethal dose (LD50) is 4730 mg/kg.

Consider `CCCCC(CC)CNC1CCCCC1` (stereo not drawn), for which the LD50 is 710 mg/kg.

Consider `CC(Cl)=CC(=O)Nc1ccc(O)cc1`, for which the LD50 was 1580 mg/kg.

Regarding `O=C(OC1CCC(N2CCCCC2)CC1)c1ccc([N+](=O)[O-])cc1` (stereo not drawn), the LD50 was 3250 mg/kg.

`C=CCc1ccc2c(c1)OCO2`: the median lethal dose (LD50) was 1950 mg/kg.

In the case of `C=CCOCC(CC)(CO)CO`, the LD50 was 4930 mg/kg.

On to `NS(=O)(=O)c1cc(C(=O)O)cc(N2CCCC2)c1Oc1ccccc1`, for which the LD50 was 5600 mg/kg.

On to `Cc1cnccc1N`, for which the LD50 was 446 mg/kg.

In the case of `Nc1cc2c(S(=O)(=O)O)cccc2c(S(=O)(=O)O)c1N`, the LD50 is 29000 mg/kg.

`CCOc1ccc(Cl)cc1C(CN(C)C)C(C)CC` (stereo not drawn): the LD50 is 632 mg/kg.

Take `N#CCCN1C(=O)C(O)N=C(c2ccccc2F)c2cc(Cl)ccc21` (stereo not drawn): the median lethal dose (LD50) is 3500 mg/kg.

For `CCCCCCCCCc1cccc(OCCOCC(=O)O)c1`, the median lethal dose (LD50) is 880 mg/kg.

As for `C=CC(C)=CCCC(C)(C)O`, the 50% lethal dose (LD50) is 1700 mg/kg.

Consider `Cc1[nH]c(=O)c(C#N)cc1-c1ccc2nccn2c1`, for which the LD50 is 7800 mg/kg.

`O=C1c2ccccc2C(=O)c2c1ccc1c2[nH]c2ccc3c4ccc5c6c(ccc(c(=O)c3c21)c46)c1ccc2c(=O)c3ccccc3c3nn5c1c23`: the median lethal dose (LD50) is 11200 mg/kg.

In the case of `CCCCCCCCCCCC[N+](CCO)(CCO)Cc1ccccc1`, the median lethal dose (LD50) was 750 mg/kg.

With `CNC(=O)Nc1nc2ccccc2s1`, the LD50 is 1280 mg/kg.

For `CCCCNC(=O)NS(=O)(=O)c1ccc(C)cc1`, the 50% lethal dose (LD50) was 2490 mg/kg.

In the case of `C=C(C)c1cccc(C(C)(C)N=C=O)c1`, the LD50 was 3100 mg/kg.

As for `O=C(NC[P+](CO)(CO)CO)NC[P+](CO)(CO)CO`, the median lethal dose (LD50) was 245 mg/kg.

As for `CCCCCCOCCCCCC`, the LD50 is 30900 mg/kg.

In the case of `CCCCOC(=O)c1c[n+](C)c2n(c1=O)C(C)CCC2` (stereo not drawn), the LD50 is 1370 mg/kg.

Take `O=C(O)c1c(Cl)c(Cl)c(Cl)c(Cl)c1C1c2cc(Br)c(O)c(Br)c2Oc2c1cc(Br)c(O)c2Br`: the median lethal dose (LD50) was 8400 mg/kg.

In the case of `C=CCl`, the LD50 is 500 mg/kg.

With `C=C(Cl)C(OC(C)=O)OC(C)=O`, the median lethal dose (LD50) was 320 mg/kg.

As to `C/C=C(C)/C=C/C=C(C)C`, the LD50 is 1900 mg/kg.

Take `O=S(=O)(Cl)c1ccc(Cl)cc1`: the 50% lethal dose (LD50) was 4250 mg/kg.

In the case of `CC(O)C(=O)O` (stereo not drawn), the median lethal dose (LD50) is 2100 mg/kg.

In the case of `CCS(=O)Cc1ccccc1OC(=O)NC` (stereo not drawn), the LD50 was 150 mg/kg.

For the compound `CCOC(=O)c1noc(C)c1C(=O)c1ccccc1`, the median lethal dose (LD50) is 1000 mg/kg.

In the case of `CC1=C(CC(=O)O)c2cc(F)ccc2/C1=C\c1ccc(S(C)=O)cc1` (stereo not drawn), the LD50 is 264 mg/kg.

As for `CC1(C)CC(=O)CC(C)(C)N1[O]`, the LD50 is 1460 mg/kg.

On to `Cc1ccc(N)cc1Br`, for which the LD50 is 180 mg/kg.

With `CC(C)(C)CCCCCCC(=O)O`, the LD50 is 2070 mg/kg.

`O=NN1CCc2ccccc21`: the 50% lethal dose (LD50) is 320 mg/kg.

In the case of `Nc1ccc2cc(S(=O)(=O)O)ccc2c1CS(=O)(=O)O`, the 50% lethal dose (LD50) is 9200 mg/kg.

As to `O=C(O)c1snc(Cl)c1Cl`, the LD50 is 1200 mg/kg.

For `O=C(c1ccccc1)c1cccc2c1CCC2C(=O)O` (stereo not drawn), the 50% lethal dose (LD50) was 41.1 mg/kg.

As to `C1CCC(CNC2=NCCS2)CC1`, the LD50 was 50 mg/kg.

As for `CCCCC(C)C(C)C(C)C(C)=O` (stereo not drawn), the LD50 is 8470 mg/kg.

On to `O=C(O)CCc1nc(-c2ccccc2)c(-c2ccccc2)o1`, for which the LD50 is 4470 mg/kg.

`COc1ccc2cc([C@H](C)C(=O)OCCN3CCN(Cc4ccccc4)CC3)ccc2c1`: the LD50 was 1100 mg/kg.

For `Cc1ccc2ncccc2c1`, the 50% lethal dose (LD50) is 800 mg/kg.

For `Cn1c(=O)c2c(ncn2CCCCCN2CCN(c3ccc(Cl)cc3)CC2)n(C)c1=O`, the LD50 was 353 mg/kg.

On to `CNC(=O)ON=C1SC(C)C(=O)NC1(C)C` (stereo not drawn), for which the LD50 is 0.884 mg/kg.

In the case of `CCCC(CCC)C(=O)O`, the LD50 is 670 mg/kg.

As to `CCS(=O)(=O)CCOP(=S)(OC)OC`, the LD50 was 500 mg/kg.

With `CC(C)C1NC(=O)c2ccccc2O1` (stereo not drawn), the median lethal dose (LD50) was 1850 mg/kg.

For `C=CC#CC(C)(C)O`, the 50% lethal dose (LD50) is 600 mg/kg.

As to `O=C(CCCN1CCC(O)CC1)c1ccc(F)cc1`, the 50% lethal dose (LD50) is 2400 mg/kg.

Regarding `CC(C)(C)C1CCC(NCCC(c2ccccc2)c2ccccc2)CC1` (stereo not drawn), the LD50 was 2550 mg/kg.

Regarding `FC(F)(F)c1nc2c(Br)cc(Br)cc2[nH]1`, the LD50 is 5.98 mg/kg.

With `CC(C(=O)O)c1ccc(C(=O)c2ccccc2)s1` (stereo not drawn), the LD50 was 181 mg/kg.

With `O=C(O)CCCCCCCCC(=O)O`, the median lethal dose (LD50) was 14400 mg/kg.

For the compound `CCCCCCCCCCCCc1ccc(C)c(C[N+](C)(C)C)c1`, the LD50 was 389 mg/kg.

Turning to `CC(=O)Nc1cc(Cl)ccc1Cl`, the LD50 was 4100 mg/kg.

In the case of `COc1nc(C(F)(F)F)nc(=NC(O)=NS(=O)(=O)c2ccccc2C(F)(F)F)[nH]1`, the median lethal dose (LD50) is 4700 mg/kg.

Consider `CN1CCN(c2c(F)cc3c(=O)c(C(=O)O)cn4c3c2SCC4)CC1`, for which the LD50 is 501 mg/kg.

As for `O=C(CN1CCNCC1)NC1CCCCC1`, the LD50 is 3900 mg/kg.

Turning to `CCN(CCCCCCOC(=O)c1ccc(OC)c(OC)c1)C1CCc2cc(OC)c(OC)cc2C1` (stereo not drawn), the LD50 is 561 mg/kg.
